What was measured:
[1] = system: patient with nose and brow acne and rosacea; assay: acne and rosacea; assay type: in vivo, human; conditions: 300 mg/kg per day
Description: Additional symptoms relieved by the high doses of anti-herpes drugs involve severe nose and brow acne and rosacea on the chin and lower cheeks. Although the mechanism for these conditions is not understood, they are believed to be of autoimmune origin. Both skin conditions disappeared at 300 mg/kg of famciclovir per day and recurred when the drug was stopped.

[2] = system: herpes-infected patient with kyphosis; assay: kyphosis; assay type: in vivo, human; conditions: 300 mg/kg per day
Description: Another condition observed in a herpes-infected patient was kyphosis or abnormal curvature of the upper spine. Generally, kyphosis is thought to result from habitual poor posture. However, kyphosis is sometimes caused by abnormal contraction of some spinal muscles. When the patient received 300 mg/kg of famciclovir per day, their posture improved as the contracted spinal muscles relaxed.

[3] = system: patient with urination problems; assay: urination problems (benign prostate hypertrophy symptoms); assay type: in vivo, human; conditions: 300 mg/kg per day, taken in 6 hour increments
Description: The same high doses of famciclovir also relieved urination problems in a patient, such as hesitancy, weak stream and retention. These signs or symptoms are usually associated with benign prostate hypertrophy. However, without taking any prostate-specific drugs, but famciclovir alone, the patient achieved substantial relief of these symptoms. The signs or symptoms disappeared or were at least 90% relieved at 300 mg/kg of famciclovir per day, taken in 6 hour increments. The symptoms returned in about 10 hours when the drug was taken every 10 hours instead of every six hours. When the drug was taken every 6 hours, the symptoms, once again, disappeared.

[4] = system: patient with muscle spasms, pain and inability to sleep; assay: muscle spasms, pain, sleep and restless leg; assay type: in vivo, human; conditions: 300 mg/kg per day
Description: Severe sleep disturbance can be caused by inability to relax the axial muscles due to hypertonus. It is not appreciated by those without hypertonus of the muscles, but it is necessary for the somatic muscles to relax to a predetermined level, before sleep will commence. Hypertonus can prevent that relaxation and prevent sleep. One patient was unable to achieve normal REM sleep for over 15 years, when their autoimmune disease was treated with the current treatments, which are essentially ineffective. However, this same patient was restored to essentially […] on the doses of this invention. Additionally this patient suffered from severe “restless leg syndrome” which is caused by the same disease conditions of the sympathetic chain as causes all above. […] At the levels of '114 these benefits were only slightly apparent, with the doses of this application normal REM sleep is restored. And, if the drug levels of the 2-aminopurines are allowed to drop for only a few hours the inability to sleep, and the severe restless leg return to the afflicted. […] The relationship of the appearance or suppression of the signs or symptoms of sleep disturbance to the onboard drug level is consistent and dramatic. […] The patient was administered 300 mg/kg of famciclovir per day and experienced relief of 90% of the spasms and pain. […]

[5] = system: patient with aseptic meningitis; assay: treatment of aseptic meningioencephalitis / aseptic meningitis; assay type: in vivo, human
Description: The inventor thought that the cause of the AME was the patient's herpes infection that had spread internally to the brain and meninges. […] Because the product inserts for the anti-viral products on the market ([…]®) all warned against using increased doses of the product because of the fear of further renal damage, there was reason not to use increased doses beyond those of '114. […] A patient weighing about 100 kg having multiple signs or symptoms of autoimmune disease had been ingesting famciclovir for several years at about 10 g per day taken 4 times daily during a 24 hour period. While the subject's condition was tolerable, they were in a regular state of pain in the joints and had other signs or symptoms discussed below. They experienced significant headache pain, which was diagnosed as aseptic meningitis, which was discovered to be treatable initially using 340 mg of famciclovir per kg body weight. […] The inflammation and pain are therefore thought to be caused by the immune attack on the infected tissues. Within hours of taking the high doses of famciclovir, the patient experienced at least 60% relief of the extremely painful and debilitating symptoms of meningitis. […] The Shalabi, et al. report is discouraging. According to the authors, the disease is self-resolving. Without a double-blind study, it was not possible to detect the contribution of acyclovir to the recovery.

[6] = approved oral dose range; cited from earlier work
[7] = system: patient with reduced renal function; assay: creatinine clearance (renal function) in a patient with autoimmune disease; assay type: in vivo, human
Description: Patients with autoimmune disease often suffer significant inflammation of the kidneys, often causing renal dysfunction and/or destruction, which can lead to death in the absence of dialysis. A clinical laboratory measure of kidney function is creatinine clearance. Creatinine is the metabolic product formed from creatine when food is converted to energy. Creatinine is produced at a steady state and is affected very little by diet or normal physical activities. When a subject's kidneys are damaged and/or cannot function normally, the amount of creatinine excreted in the subject's urine decreases while its level in the blood increases. Thus, the blood level of creatinine indicates how well the kidneys are working. A high level generally means the kidneys are not functioning properly. A creatinine clearance test is performed both on a blood sample taken from the subject's vein and on a sample of urine collected over 24 hours. […] A normal creatinine level is less than 1, and normal CrCl levels are typically >100 mL/min. Dialysis is usually required when CrCl levels fall below about 20 mL/min.

[8] = system: patient with cranial nerve palsy; assay: cranial nerve palsy (loss of control of soft palate) and loss of sympathetic nerve function; assay type: in vivo, human
Description: The loss of sympathetic nerve functions, can occur with a loss of control of some function of some autonomic muscles, or loss of sensation or both. This is not as common as 1 through 6, above. And, the effects are usually not as severe. One example is the loss of control of the soft palate, either partial or complete which can cause severe snoring, and is part of the sleep apnea syndrome, and also can cause a snorting sound when talking or laughing, or can cause food to get caught under the soft palate. Another condition is cranial nerve palsies as discussed in the Sixteenth Edition of the Merck Manual at page 2395. […] This new treatment effectively suppresses all of these conditions, and in at least one patient return of most lost function of the soft palate has occurred. In another there was significant return of anal sphincter tone with these doses which had been previously lost on the doses of '114.
A patient was experiencing the loss of control of the soft palate because it could not properly contract, a condition known as cranial nerve palsy. The condition causes snorting during talking and difficulty swallowing food. The food often lodges above the soft palate. These symptoms were 80% eliminated at 300 mg/kg of famciclovir per day.

[9] = body pH of 7.4; cited from earlier work

In the case of `CC(=O)OCC(CCn1cnc2cnc(N)nc21)COC(C)=O` [famciclovir, 2-amino-9-(4-acetoxy-3-acetoxymethylbut-1-yl)purine], the “skin conditions (acne, rosacea)” value [1] was “disappeared”, the posture in kyphosis [2] was “improved” and the “urination signs or symptoms (hesitancy, weak stream, retention) relieved” value [3] was “at least 90%”. The “relief of the spasms and pain” value [4] was 90%, the “severe bowel and back pain and spasms relieved” value [4] was “about 80%” and the “unremitting severe symptoms of aseptic meningitis” value ([5]; 340 mg/kg per day, maintained at 300 mg/kg/day) was “quickly dispersed”. For the same molecule, the “relief of symptoms of meningitis” value ([5]; 340 mg/kg, within hours of taking) was “at least 60%”, the “treating the AME” value ([5]; maximum dose of 120 mg/kg body weight as taught in '114) was “ineffective” and the “acute pain and the AME” value ([5]; more than 250, e.g. 340 to 400 mg/kg/day) was “completely stopped”. For the same molecule, the “absorption (dose linearity)” value [6] was “linear”, the creatinine clearance level ([7]; dose increased from '114 level to levels of this application, from 89 mL/min, 100 kg man) was 143 mL/min and the impaired kidney function ([7]; more than 250 mg/kg of body weight per day) was “significant improvement”. For the same molecule, the “soft palate muscle strength” value ([8]; 300 mg/kg daily, over a six-month period) was “gradually returned”, the “cranial nerve palsy symptoms eliminated” value ([8]; 300 mg/kg per day) was 80% and the “water solubility compared with other representative compounds such as acyclovir” value [9] was “more water soluble”.
